Non-standard residues stand in square brackets, D forms with d. Residues, ends and D or L forms follow the SMILES beside them. Abu = CC[C@H](N)C(=O)O
Tests used:
[1] = target: T1, Delta-type opioid receptor (Mus musculus, UniProt P32300); experiment: In vitro opioid receptor delta mediated mouse vas deferens (MVD) assay; type: tissue-based
[2] = (§1) IC50 ratio is GPI/MVD; type: functional
[3] = target: T2, Delta-type opioid receptor (Rattus norvegicus, UniProt P33533); experiment: Displacement of [3H]- DPDPE from delta opioid receptor in rat brain membrane; type: cell membranes
T2 sequence (P33533 whole entry): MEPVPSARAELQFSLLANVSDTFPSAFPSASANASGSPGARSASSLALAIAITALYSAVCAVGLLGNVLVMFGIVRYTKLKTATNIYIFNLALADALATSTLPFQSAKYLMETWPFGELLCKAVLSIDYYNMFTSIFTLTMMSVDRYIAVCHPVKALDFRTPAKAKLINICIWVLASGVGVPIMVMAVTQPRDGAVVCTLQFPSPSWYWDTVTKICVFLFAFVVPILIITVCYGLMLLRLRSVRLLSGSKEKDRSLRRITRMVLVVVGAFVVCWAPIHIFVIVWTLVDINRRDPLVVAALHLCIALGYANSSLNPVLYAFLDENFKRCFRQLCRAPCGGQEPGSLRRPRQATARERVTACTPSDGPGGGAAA

Mu-type opioid receptor [4] = target: T3, Mu-type opioid receptor (Rattus norvegicus, UniProt P33535); experiment: Displacement of [3H]- DAGO from opioid receptor mu in rat brain membrane; type: cell membranes
T3 sequence (P33535 whole entry): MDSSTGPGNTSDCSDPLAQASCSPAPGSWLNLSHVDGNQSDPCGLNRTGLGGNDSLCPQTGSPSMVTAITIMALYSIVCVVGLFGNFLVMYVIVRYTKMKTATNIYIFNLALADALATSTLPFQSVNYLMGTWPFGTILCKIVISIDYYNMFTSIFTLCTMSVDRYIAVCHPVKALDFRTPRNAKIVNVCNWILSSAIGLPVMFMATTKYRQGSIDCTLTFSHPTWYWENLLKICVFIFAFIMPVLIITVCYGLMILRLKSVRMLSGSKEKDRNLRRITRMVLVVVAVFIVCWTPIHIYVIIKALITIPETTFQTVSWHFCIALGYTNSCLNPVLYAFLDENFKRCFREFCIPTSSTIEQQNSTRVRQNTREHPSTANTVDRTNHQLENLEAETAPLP

[5] = target: T2, Delta-type opioid receptor; experiment: Displacement of [3H]DSLET from delta opioid receptor in rat brain membrane; type: cell membranes
Mu-type opioid receptor [6] = target: T4, Mu-type opioid receptor (Cavia porcellus, UniProt P97266); experiment: Inhibition of opioid receptor mu in guinea pig ileum (GPI); type: tissue-based
T4 sequence (P97266 whole entry): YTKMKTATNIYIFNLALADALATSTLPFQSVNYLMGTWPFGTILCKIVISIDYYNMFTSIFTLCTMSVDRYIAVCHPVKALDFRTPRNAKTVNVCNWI

[7] = target: T1, Delta-type opioid receptor; experiment: Compound is tested in vitro in mouse vas deferens (MVD) assay mediated by Opioid receptor delta 1; type: tissue-based
[8] = target: T2, Delta-type opioid receptor; experiment: Opioid receptor binding affinity in rat brain membrane preparations by the displacement of [3H]DSLET (Opioid receptor delta 1-selective radioligand); type: cell membranes
Mu-type opioid receptor [9] = target: T3, Mu-type opioid receptor; experiment: Opioid receptor mu 1 binding affinity in rat brain membrane preparations by the displacement of [3H]- DAGO; type: cell membranes
[10] = as §1
Mu-type opioid receptor [11] = target: T4, Mu-type opioid receptor; experiment: Compound is tested in vitro in guinea pig ileum (GPI) assay mediated by Opioid receptor mu 1; type: tissue-based
[12] = IC50 ratio is [3H]- DAGO/[3H]-DSLET
[13] = target: T2, Delta-type opioid receptor; experiment: Opioid receptor binding affinity in rat brain membrane preparations by the displacement of [3H]- DPDPE (Opioid receptor delta 1-selective radioligand); type: cell membranes

T1 sequence (P32300 whole entry): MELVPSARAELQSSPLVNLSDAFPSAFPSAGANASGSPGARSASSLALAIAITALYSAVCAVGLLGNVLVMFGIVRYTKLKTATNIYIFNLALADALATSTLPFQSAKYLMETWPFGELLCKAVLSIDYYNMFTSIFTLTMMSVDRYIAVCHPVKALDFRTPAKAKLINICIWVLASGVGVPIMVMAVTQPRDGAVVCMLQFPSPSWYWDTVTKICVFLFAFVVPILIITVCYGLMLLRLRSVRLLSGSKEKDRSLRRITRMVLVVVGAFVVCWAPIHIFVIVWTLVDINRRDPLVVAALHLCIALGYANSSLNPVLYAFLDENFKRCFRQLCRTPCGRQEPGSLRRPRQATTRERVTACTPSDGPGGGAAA

Work on H-YMFHLMN-OH yielded an IC50 [1] of 9 nM, a Ratio [2] of 39 and an IC50 [3] of 16 nM. For the same compound, the IC50 (Mu-type opioid receptor [4]) was 660 nM, the IC50 [5] was 22 nM and the IC50 (Mu-type opioid receptor [6]) was 350 nM.
Work on CC[C@H](NC(=O)[C@@H](NC(=O)CNC(=O)[C@H](Cc1ccccc1)NC(=O)[C@H](C)NC(=O)[C@@H](N)Cc1ccc(O)cc1)C(C)C)C(=O)N[C@@H](CC(=O)O)C(N)=O (H-YAFGV[Abu]D-NH2) yielded an IC50 [7] of 11.1 nM, an IC50 [8] of 29.5 nM and an IC50 (Mu-type opioid receptor [9]) of 130 nM. For the same compound, the Ratio [10] was 12 and the IC50 (Mu-type opioid receptor [11]) was 130 nM.
H-YAFQVVG-NH2 showed an IC50 [7] of 1.51 nM, an IC50 [8] of 3.8 nM and an IC50 (Mu-type opioid receptor [9]) of 280 nM. The Ratio [10] was 185, the Ratio [12] was 73 and the IC50 (Mu-type opioid receptor [11]) was 280 nM.
In the case of CC(C)[C@H](NC(=O)[C@H](CCC(=O)O)NC(=O)[C@H](Cc1ccccc1)NC(=O)[C@H](C)NC(=O)[C@@H](N)Cc1ccc(O)cc1)C(=O)N[C@H](C(=O)NCC(=O)O)C(C)C [DELTORPHINE II], the IC50 [1] is reported as 5.55 nM, the IC50 [5] is reported as 184 nM and the IC50 (Mu-type opioid receptor [6]) is reported as 9000 nM.
For H-YAFDV-NH2, the IC50 [1] was 220 nM, the IC50 (Mu-type opioid receptor [4]) was 640 nM and the IC50 [5] was 99 nM. It also gave an IC50 (Mu-type opioid receptor [6]) of 650 nM.
H-YAFDVV-NH2 gave an IC50 [1] of 7.5 nM, an IC50 (Mu-type opioid receptor [4]) of 700 nM and an IC50 [5] of 3.9 nM. It also gave an IC50 (Mu-type opioid receptor [6]) of 320 nM.
Work on H-YMFYLMD-NH2 yielded an IC50 [1] of 1.02 nM, a Ratio [2] of 100 and an IC50 [3] of 5.9 nM. For the same compound, the IC50 (Mu-type opioid receptor [4]) was 158 nM, the IC50 [5] was 9.1 nM and the IC50 (Mu-type opioid receptor [6]) was 100 nM.
With CC[C@H](NC(=O)[C@H](CCSC)NC(=O)[C@H](CC(C)C)NC(=O)[C@H](Cc1cnc[nH]1)NC(=O)[C@H](Cc1ccccc1)NC(=O)[C@H](CCSC)NC(=O)[C@@H](N)Cc1ccc(O)cc1)C(N)=O (H-YMFHLM[Abu]-NH2) the IC50 [1] was 1.5 nM, the IC50 [3] was 7.4 nM and the IC50 (Mu-type opioid receptor [4]) was 360 nM. For the same compound, the IC50 [5] was 18 nM and the IC50 (Mu-type opioid receptor [6]) was 300 nM.
For C[C@H](NC(=O)[C@@H](N)Cc1ccc(O)cc1)C(=O)N[C@@H](Cc1ccccc1)C(=O)N[C@@H](CC(=O)O)C(N)=O (H-YAFD-NH2), the IC50 [1] was 1000 nM, the IC50 (Mu-type opioid receptor [4]) was 100 nM and the IC50 [5] was 960 nM. It also gave an IC50 (Mu-type opioid receptor [6]) of 160 nM.
H-YMFDLMD-OH showed an IC50 [7] of 380 nM, an IC50 [8] of 80 nM and an IC50 [13] of 55 nM. The IC50 (Mu-type opioid receptor [9]) was greater than 30000 nM, the Ratio [10] was greater than 40 and the Ratio [12] was greater than 375. The IC50 (Mu-type opioid receptor [11]) was greater than 15000 nM.
In the case of C[C@@H](NC(=O)[C@@H](N)Cc1ccc(O)cc1)C(=O)N[C@@H](Cc1ccccc1)C(=O)NCC(=O)N[C@@H](Cc1ccc(O)cc1)C(=O)N1CCC[C@H]1C(=O)N[C@@H](CO)C(N)=O [DERMORPHIN], the IC50 (Mu-type opioid receptor [4]) is reported as 3.2 nM and the IC50 (Mu-type opioid receptor [6]) is reported as 1.41 nM.
Work on H-YMFFLMD-NH2 yielded an IC50 [1] of 1.6 nM, a Ratio [2] of 47 and an IC50 [3] of 11 nM. It also gave an IC50 (Mu-type opioid receptor [4]) of 450 nM, an IC50 [5] of 15 nM and an IC50 (Mu-type opioid receptor [6]) of 75 nM.
Work on H-YMFHLMN-NH2 [listing 1 of 2 here] yielded an IC50 [1] of 8 nM, an IC50 [3] of 18 nM and an IC50 (Mu-type opioid receptor [4]) of 380 nM. The IC50 [5] was 20 nM and the IC50 (Mu-type opioid receptor [6]) was 245 nM.
For H-YMFHLMD-OH, the IC50 [1] was 1.3 nM, the IC50 [3] was 2.4 nM and the IC50 (Mu-type opioid receptor [4]) was 1500 nM. It also gave an IC50 [5] of 4.5 nM and an IC50 (Mu-type opioid receptor [6]) of 6000 nM.
H-YMFKLMD-NH2 showed an IC50 [7] of 1000 nM, an IC50 [8] of 550 nM and an IC50 [13] of 380 nM. The IC50 (Mu-type opioid receptor [9]) was 6000 nM, the Ratio [10] was 7.5 and the Ratio [12] was 11. For the same compound, the IC50 (Mu-type opioid receptor [11]) was 7500 nM.
Compound CSCC[C@H](NC(=O)[C@H](CC(C)C)NC(=O)[C@H](Cc1cnc[nH]1)NC(=O)[C@H](Cc1ccccc1)NC(=O)[C@@H](CCSC)NC(=O)[C@@H](N)Cc1ccc(O)cc1)C(=O)N[C@@H](CC(=O)O)C(N)=O (H-Y[dM]FHLMD-NH2) has an IC50 [1] of 1.3 nM, an IC50 [3] of 6.1 nM and an IC50 (Mu-type opioid receptor [4]) of 1200 nM. For the same compound, the IC50 [5] was 9 nM and the IC50 (Mu-type opioid receptor [6]) was 1900 nM.
CC(C)[C@H](NC(=O)[C@H](CCC(=O)O)NC(=O)[C@H](Cc1ccccc1)NC(=O)[C@H](C)NC(=O)[C@@H](N)Cc1ccc(O)cc1)C(=O)N[C@H](C(=O)NCC(N)=O)C(C)C gave an IC50 [3] of 3.6 nM, an IC50 [5] of 3.8 nM and an IC50 (Mu-type opioid receptor [6]) of 5200 nM.
For CC[C@H](NC(=O)[C@H](CCSC)NC(=O)[C@H](CC(C)C)NC(=O)[C@H](Cc1c[nH]cn1)NC(=O)[C@H](Cc1ccccc1)NC(=O)[C@H](CCSC)NC(=O)[C@@H](N)Cc1ccc(O)cc1)C(N)=O (H-YMFHLM[Abu]-NH2), the Ratio [2] was 200.
For H-YMFGLMD-NH2, the IC50 [7] was 1.65 nM, the IC50 [8] was 14 nM and the IC50 [13] was 8 nM. It also gave an IC50 (Mu-type opioid receptor [9]) of 161 nM, a Ratio [10] of 62 and a Ratio [12] of 11.5. For the same compound, the IC50 (Mu-type opioid receptor [11]) was 100 nM.
CC(C)[C@H](NC(=O)[C@H](CC(=O)O)NC(=O)[C@H](Cc1ccccc1)NC(=O)[C@H](C)NC(=O)[C@@H](N)Cc1ccc(O)cc1)C(=O)N[C@H](C(=O)NCC(N)=O)C(C)C showed an IC50 [3] of 1.1 nM, an IC50 (Mu-type opioid receptor [4]) of 910 nM and an IC50 [5] of 1.5 nM. It also gave an IC50 (Mu-type opioid receptor [6]) of 420 nM.
In the case of H-YMFHLMN-NH2 [listing 2 of 2 here], the Ratio [2] is reported as 30.
